The structures appear in SMILES notation. Where “and” joins values, the source holds several entries; their conditions need not be identical. Identical values can stand only once.

The results in this text go back to patent publication US20210106582A1, “COMPOUNDS AND PHARMACEUTICAL COMPOSITIONS THEREOF FOR USE IN THE TREATMENT OF FIBROTIC DISEASES” (Galapagos NV, priority 2017, published 2021).

Holding throughout (assay type): in vivo
Assay [1] has as its system male C57BL/6 mice fed a Methionine and Choline-deficient (MCD) diet. The assay is described as follows: MCD model (methionine and choline deficient diet, NASH). Conditions: individual animals, 30 mg/kg q.d. p.o., MCD diet 8 wk. The procedure:
The methionine and choline deficient (MCD) diet model is used to produce a severe phenotype of NASH in […] (Santhekadur et al., 2017), and is used to evaluate the compounds of the invention.
At induction, 8 weeks-old male C57BL/6 mice (Janvier Labs, France) maintained at 22° C.±2° C. and humidity at 55%±10%, with a 12-hrs dark/light cycle are fed a standard diet (chow (A04C-10, Safe, France) or a Methionine and Choline-deficient (MCD) diet (EFTD.90262, Ssniff, Soest, Germany) for 8 weeks. All animals have access to filtered tap drinking water.
Four weeks after the induction, the animals are either assigned to a control-group or a test-group.
Test group animals are dosed with the a test compound, i.e. Compound A (CpdA) or Compound B (CpdB), at 30 mg/kg, q.d., p.o. formulated in methylcellulose 0.5%, 1 equivalent HCl. The control groups receives a similar volume of vehicle (10 mL/kg), i.e. the standard diet for control group 1 (C1) and the MCD diet for control group 2 (C2). Mice are randomly assigned to a treatment group according to their body weight in order to ensure a homogenous reparation.
After sacrifice (week 8), the activity of the test compound on the development of NASH is assessed by plasma ALT and AST levels and in liver by histopathological examination of fibrosis and steatosis (Sirius red, Oil Red O), collagen (OH-Pro) and triglycerides content and expression of fibrotic and inflammatory genes.
In addition, the NAS score is determined to further evaluate the compounds with respect to their effect on diet induced NASH. The nonalcoholic fatty liver disease activity scoring (NAS) has been proposed and accepted as a tool to measure changes in NAFLD during therapeutic trials (Brunt et al., 2011; Kleiner et al., 2005).
The NAS score (0-8) is defined as the sum of the steatosis score (0-3), lobular inflammation score (0-3), ballooning score (0-2). A NAS score of ≥5 is indicative of a NASH diagnostic.

The subject of assay [2] is female C57BL/6J mice, lung fibrosis induced by radiation. Description: Radiation induced fibrosis mice model. The settings on record: individual animals, irradiated lung, nintedanib 60 mg/kg QD PO D1-D14. Here is the method:
Pneumonitis and lung fibrosis are the major radiation-induced complications following thoracic radiotherapy, which is one of the major treatment of lung and breast cancers, lymphomas and hematopoietic transplant conditioning.
The objective of this model is to evaluate the effect of a compound of the invention in lung fibrosis induced by radiation in mice. (Bickelhaupt et al., 2017)
7 weeks old (18/22 gr) female C57BL/6J mice from Charles River (France) are maintained on 12 h light/dark cycle at 22° C. with ad libidum access to tap water and food.
The test compounds are dissolved/suspended in appropriate vehicle prior to using and then kept light-free, under agitation at room temperature.
The dose volume administered is 10 mL/kg and the volume is adapted following mean body weight (BW) of the group as follows: 200 μL if mean BW<22.5 g, 250 μL if mean BW≥22.5 g; 300 μL if mean BW>27.5 g.
On day 1 of week 1, the animals are exposed at the thorax to a 17 Gray irradiation dose, under isoflurane anesthesia. […]
Body weight are recorded once a week, and on Day 14, lung function measurement under anesthesia is realized by Flexivent (Devos et al., 2017) for all groups before sacrifice.
At sacrifice on Day 14, the lungs are collected and fixed in 4% formaldehyde for 24 h before embedding in paraffin. […] The anti-collagen I antibody is detected and amplified by ImmPress kit (Vector Laboratories, Cat. No: MP-7401). The immunostained sections are then scanned (Nanozoomer 2.0HT, Hamamatsu) before quantification by image analysis (CaloPix software, TRIBVN Healthcare). Data are expressed as percentage collagen I area per area of lung tissue.
Values for all mice from the same group are averaged. Data are expressed as mean±sem and are compared with a one-way ANOVA followed by Dunnett multiple comparison post hoc test. […]
Manganese superoxide dismutase (MnSOD), located in mitochondria, catalyzes the conversion of superoxide into H2O2, and is a marker of antioxidant response induced by oxidative stress. MnSOD expression is measured immunohistochemically following a protocol adapted from Inghilleri et al. (Inghilleri et al., 2006).
At sacrifice on Day 14, the lungs are collected and fixed in 4% formaldehyde for 24 h before embedding in paraffin. […] The anti-MnSOD antibody is detected by an anti-rabbit biotinylated antibody (Vector Laboratories, Cat. No: BA-1100) amplified by avidin-biotin peroxidase (Vector Laboratories, Cat. No: PK-6100). […] The immunostained sections counterstained with Gill's hematoxylin are then scanned (Nanozoomer 2.0HT, Hamamatsu) before quantification by image analysis (CaloPix software, TRIBVN Healthcare). Data are expressed as percentage MnSOD stained area per area of lung tissue.

In assay [3] the test system is C57BL/6N male mice, bleomycin induced pulmonary fibrosis. Description: Therapeutic bleomycin induced pulmonary fibrosis 21-day mice model. The settings on record: individual animals, BLM, nintedanib 60 mg/kg QD PO D7-D21. Here is the method: The aim of the study is to test the efficacy of a test compound at three different doses in a 21-day model of bleomycin induced pulmonary fibrosis in mice.
11 week-old C57BL/6N male mice from Charles River (Italy) are maintained on 12 h light/dark cycle at 22° C. with ad libidum access to tap water and food.
On day 0, all mice in groups 2-4 receive a 1.5 U/kg oropharyngeal administration of bleomycin (BLM) to induce pulmonary fibrosis Animals in group 1 are not administered bleomycin, but instead receive a single dose of saline via the oropharyngeal route, and are considered sham control mice.
Animals are examined clinically twice daily. List of clinical signs and parameters are indicated in humane endpoints table. Animals are weighed daily starting from DO.
On day 21, lung functionality is determined. After deep anesthesia induced by an intraperitoneal injection (10 mL/kg) of a solution of xylazine (5 mg/kg) and ketamine (75 mg/kg), the trachea is exposed through midline incision and a cannula is inserted. Mice are ventilated with a tidal volume of 10 mL/kg at a frequency of 150 breaths/minute. FlexiVent (SCIREQ®) perturbations are performed three times. Deep Inflation and Pressure-Volume loops (PV loops) with stepwise increasing pressure are performed to measure the Inspiratory Capacity and stepwise pressure-driven perturbation (PVs-P). PV loops between 0 and 30 cm H2O are generated to obtain Total Lung Capacity (A). A snapshot perturbation maneuver is imposed, which is a threefold sinusoidal wave of in- and expiration controlled by the ventilator, resulting in resistance (Rrs), compliance (Crs), and elastance (Ers) of the whole respiratory system (airways, lung and chest wall). A value for each group is calculated with average FlexiVent-validated measurements recorded in each individual subject.
Then, two hours after the last dose of test substance and nintedanib, mice are sacrificed by anesthetic overdose. The lungs are excised and weighed individually. The lungs are then placed into marked bottles containing 10% buffered formalin for further histopathological evaluation.
Body weight data and lung weight data are processed using MS Excel. Statistical analysis and graphical presentation are performed using GraphPad Prism software (version 5.04).
For histopathological evaluation, whole lungs are embedded in paraffin and stained with Mallory's trichrome.
Pulmonary histological changes are assessed using Matsuse's modification of Ashcroft score (Ashcroft et al., 1988; Matsuse et al., 1999). Statistical analysis and graphical presentation is performed using GraphPad Prism software (version 5.04). Mann-Whitney test is employed.
Differences between groups are considered statistically significant when p<0.05.

The subject of assay [4] is male C57BL/6 mice fed CDAHF diet. The assay is described as follows: CDAHFD model (choline-deficient, L-amino acid-defined, high-fat diet). The settings on record: individual animals, CDAHFD 10W, 30 mg/kg q.d. p.o.

For `Cc1c2n(c(OC[C@@H]3COCCO3)cc1=O)CCc1cc(OCC(F)(F)F)ccc1-2` [Compound B, 4-[[(2S)-1,4-dioxan-2-yl]methoxy]-1-methyl-9-(2,2,2-trifluoroethoxy)-6,7-dihydrobenzo[a]quinolizin-2-one], the “TIMP1 NRQ gene expression” value in assay [1] (NRQ scaled versus disease, Fig 8 Panel B) is 0.3 (3×) and 0.4 (2×) and 0.5 and 1.7 (2×) and 1.2 and 1.4. Further, the “Col1a NRQ gene expression” value in assay [1] (dosing from week 4, Normalised Relative Quantity scaled versus disease, FIG. 8 Panel A) was 0.5 and 2.0 and 1.3 and 1.5 (2×) and 0.4 and 0.3 (2×) and 0.2 (2×). Moreover, the “TNfα NRQ gene expression” value in assay [1] (liver, NRQ scaled versus disease, Fig 9 Panel A) is 0.4 (2×) and 0.7 and 1.1 (2×) and 0.8 and 0.9 and 0.6 and 0.3 (2×). For the same compound, in assay [1] (liver, NRQ scaled versus disease, Fig 9 Panel B), the “CC12 NRQ gene expression” value was 0.8 and 0.3 and 0.7 (2×) and 1.2 (2×) and 0.9 (2×) and 1.5 and 0.5. Further, the NAS scoring data in assay [1] (total NAS score (0-8), Fig 10) is 5.0 and 7.0 (2×) and 6.0 (7×).
For the compound `COC(=O)c1ccc2c(c1)NC(=O)/C2=C(\Nc1ccc(N(C)C(=O)CN2CCN(C)CC2)cc1)c1ccccc1` [nintedanib], the “Type I collagen stained area fraction” value in assay [2] (Figure 15) is 10.5% (2×) and 7.6% and 7.1% and 6.5% and 11.0% and 8.2% and 9.3% and 8.9% and 13.7%. Besides, the “MnSOD stained area fraction” value in assay [2] (Figure 16) was 1.19% and 0.75% and 0.25% and 0.50% and 0.79% and 0.62% and 0.69% and 0.92% and 0.53% and 1.11%. Also, the “Compliance of the Respiratory System” value in assay [3] (Figure 14 panel B) was 0.039 mL/cmH2O (2×) and 0.031 mL/cmH2O and 0.032 mL/cmH2O (2×) and 0.040 mL/cmH2O and 0.027 mL/cmH2O (3×) and 0.034 mL/cmH2O and 0.035 mL/cmH2O and 0.045 mL/cmH2O and 0.015 mL/cmH2O. Moreover, in assay [3] (Figure 14 panel C), the “Elastance of the Respiratory System” value is 25.83 cmH2O/mL and 32.61 cmH2O/mL and 31.04 cmH2O/mL and 25.16 cmH2O/mL and 37.06 cmH2O/mL and 36.60 cmH2O/mL and 31.06 cmH2O/mL and 29.07 cmH2O/mL and 37.31 cmH2O/mL and 28.26 cmH2O/mL and 25.68 cmH2O/mL and 22.39 cmH2O/mL and 68.28 cmH2O/mL. Further, the “Ashcroft Score” value in assay [3] (Matsuse's modification, Figure 13) is 2.0 and 2.3 and 2.8 and 3.2 and 3.7 (2×) and 3.5 (4×) and 3.0 (2×) and 3.4 and 2.5 and 2.4. Also, the “Inspiratory Capacity” value in assay [3] (day 21 FlexiVent, Figure 14 panel A) is 0.69 mL and 0.57 mL and 0.62 mL and 0.71 mL and 0.48 mL and 0.58 mL and 0.68 mL and 0.53 mL and 0.56 mL and 0.76 mL and 0.78 mL and 0.33 mL.
For the compound `CSc1ccc(C(=O)/C=C/c2cc(C)c(OC(C)(C)C(=O)O)c(C)c2)cc1` [CpdC, elafibranor, reference compound], in assay [4] (Fig 12 panel A), the “Col1a1 expression profiles (NRQ-scaled versus Disease-Vehicle)” value is 0.07 and 0.06 and 0.48 and 0.15 and 0.09 and 0.43 and 0.61 and 0.17. In addition, the “TNFα expression profiles (NRQ-scaled versus Disease-Vehicle)” value in assay [4] (Figure 12 panel B) is 0.45 and 0.19 and 0.41 and 0.75 and 0.55 and 0.32 (2×) and 0.26 and 0.52. In addition, the “Fibrosis (Sirius red area %)” value in assay [4] (liver, Figure 11) is 0.45% and 0.19% and 0.41% and 0.75% and 0.55% and 0.32% (2×) and 0.26% and 0.52%.
